# Laboratory results: patent US20030228572A1, “Method of determining the efficacy of a compound in treating microbial infection” (priority 1998, published 2003)
# How the values were obtained:
# [1] = test system: S. aureus ATCC 29213 (OSSA); assay: Impedance growth curves (detection time, DT) on Mueller-Hinton agar with oxacillin, BACTOMETER M-128; format: cell-based; conditions: for DT (detection time): Mueller-Hinton agar
# Description: (§1) Mueller-Hinton agar containing different concentrations of oxacillin (0 to 128 μg) was prepared by two-fold serial dilutions, and 0.6 ml of the medium was dispensed into the module wells of […]-128 (bioMerieux Vitek, Hazelwood, Mo.). The three ATCC S. aureus strains were used to observe the effect of oxacillin concentration on the impedance curves during bacterial growth. These strains were subcultured on TSA for 18 to 24 hours (“h”) at 37° C. One single colony on TSA was inoculated into 10 ml of TSB, incubated at 37° C. for several hours, and diluted with 0.1% peptone water to a turbidity of 0.5 McFarland. An aliquot (0.1 ml) of the bacterial suspensions was inoculated into the module well containing Mueller-Hinton agar supplemented with oxacillin. The inoculated modules (each module contains 16 wells) were inserted into the incubator of BACTOMETER set at 37° C. The impedance change in each well was continuously monitored and recorded by the instrument at 6-minute (“min”) intervals for 24 h, and results were obtained graphically as impedance growth curves. DT in hours for each well was automatically determined by the instrument software when three consecutive readings of impedance change exceeded the default value in the instrument, or was manually determined by locating the inflection point (where an accelerating change of impedance was evident) on the impedance curve.
# [2] = test system: S. aureus ATCC 33591 (ORSA); assay: as above; format: cell-based; conditions: for DT (detection time): Mueller-Hinton agar, without oxacillin 5.3 h
# Description: as §1
# [3] = test system: S. aureus ATCC 33592 (ORSA); assay: as above; format: cell-based; conditions: for DT (detection time): Mueller-Hinton agar, without oxacillin 5.3 h
# Description: as §1
# [4] = test system: blood cultures containing OSSA; assay: Direct detection in blood cultures by the impedance method; format: cell-based, S. aureus; conditions: oxacillin 2 μg/ml; 57 of 58 blood cultures containing OSSA; within an incubation period of 24 h
# Description: (§2) Blood specimens were collected at the National Cheng Kung University Hospital during a period in 1996. The BACTEC NR6A and NR7A vials (containing about 30 ml of liquid media; Becton Dickinson Microbiology Systems) were normally inoculated with 3 to 5 ml of blood from the patients, inserted into a BACTEC NR660 instrument (Becton Dickinson Microbiology Systems), and incubated at 37° C. A small aliquot (0.1 to 0.2 ml) of the culture broth was drawn from the vials showing growth of gram-positive cocci (as determined by Gram stain), heated in a boiling water bath for 15 min, and tested for thermonuclease activities on slides coated with toluidine blue-DNA agar (Bennett et al., Staphylococcus aureus, pp. 161-166, In: Bacteriological Analytical Manual, 7th ed. Association of Official Analytical Chemists International, Arlington, Va., 1992). A positive thermonuclease reaction was the development of a pink halo extending at least 1 mm from the periphery of the reaction well. […] The modules were incubated at 37° C. and DTs of the wells were automatically determined by the instrument or by manual inspection of the impedance curves. A vial was designated as ORSA or OSSA positive according to the same parameters set for pure stock cultures. […]
# [5] = test system: blood cultures containing ORSA; assay: as above; format: cell-based, S. aureus; conditions: oxacillin 2 μg/ml; 36 of 38 vials containing ORSA
# Description: as §2
# [6] = test system: clinical S. aureus isolates, ORSA; assay: Oxacillin susceptibility test of clinical isolates by the impedance method; format: cell-based; conditions: for DT in h on Mueller-Hinton agar With Oxacillin (2 μg/ml), mean ± standard deviation: without oxacillin 5.7 ± 0.6 h
# Description: (§3) Susceptibility tests of the 235 clinical isolates of S. aureus were performed in a similar way to that used for the ATCC strains, except that only one concentration (2 μg/ml) of oxacillin in Mueller-Hinton agar was used. A negative control (Mueller-Hinton agar without oxacillin) was included for each strain tested. A strain was designated as OSSA if, in the presence of the antibiotic, there was no DT obtained within an incubation period of 24 h. A strain was designated as ORSA if, in the presence of the antibiotic, the DT was not affected or the delay in DT was less than 3 h as compared to the negative control. S. aureus ATCC 29213 (OSSA) and ATCC 33592 (ORSA) were run at the same time as controls. Strains showing discrepant results were reconfirmed by the oxacillin screen agar (Becton Dickinson Microbiology Systems, Cockysville, Md.).
# [7] = test system: clinical S. aureus isolates, OSSA; assay: as above; format: cell-based
# Description: as §3
# [8] = oxacillin concentration as high as 128 μg/ml
# [9] = oxacillin concentration as high as 64 yg/ml
structure (smiles),measurement,setting,value
Cc1onc(-c2ccccc2)c1C(=O)N[C@@H]1C(=O)N2[C@@H]1SC(C)(C)[C@@H]2C(=O)O [oxacillin],DT (detection time),"[1]; oxacillin 0.063 μg per ml, without oxacillin 4.0 h",4.1 h
same,increase in DT,[1]; oxacillin 0.063 μg/ml versus no oxacillin,0.1 h
same,DT (detection time),"[1]; oxacillin 0.125 μg per ml, without oxacillin 4.0 h",4.1 h
same,increase in DT,[1]; oxacillin 0.125 μg/ml versus no oxacillin,0.1 h
same,DT (detection time),"[1]; oxacillin 0.25 μg per ml, within 16 hours",no DT
same,growth,[1]; oxacillin 0.25 μg/ml,almost completely inhibited
same,DT (detection time),[2]; oxacillin 32 μg per ml,6.2 h
same,DT (detection time),[2]; oxacillin 64 μg per ml,6.8 h
same,DT (detection time),[2]; oxacillin 128 μg per ml,12.1 h
same,growth,[2]; [8],not inhibited to a large extent
same,growth,[2]; [9],only slightly inhibited
same,DT (detection time),[3]; oxacillin 32 μg per ml,6.3 h
same,DT (detection time),[3]; oxacillin 64 μg per ml,7.0 h
same,DT (detection time),[3]; oxacillin 128 μg per ml,9.3 h
same,growth,[3]; [8],not inhibited to a large extent
same,growth,[3]; [9],only slightly inhibited
same,DT,[4],no DTs
same,average DT,[5],5.5 h
same,DT in h (range) on Mueller-Hinton agar With Oxacillin (2 μg/ml),"[6]; 141 ORSA strains, range over strains",4.7 to 9.1 h
same,"DT in h on Mueller-Hinton agar With Oxacillin (2 μg/ml), mean ± standard deviation",[6]; 141 ORSA strains,6.0 ± 0.7 h
same,"DT in h on Mueller-Hinton agar With Oxacillin (2 μg/ml), mean ± standard deviation","[6]; 141 ORSA strains, listed as Oxacillin",6.0 ± 0.7 h
same,delay in DTs compared to negative controls,"[6]; oxacillin 2 μg/ml, 141 of 149 ORSA strains (DTs equal to controls or delayed)",less than 3 h
same,DT behind the negative control,"[6]; oxacillin 2 μg/ml, false-negative strain no. 127",17 h
same,DT,"[6]; oxacillin 2 μg/ml, false-negative strain no. 127, negative control DT=5.7 h",22.7 h
same,DT,"[6]; oxacillin 2 μg/ml, seven of the eight false-negative strains, within an incubation period of 24 h",no DT
same,DT in h (range) on Mueller-Hinton agar With Oxacillin (2 μg/ml),"[7]; 84 correctly identified of 86 OSSA strains, 24 h incubation","—^c (—, DT was not found within an incubation period of 24 h.)"
same,DT,"[7]; oxacillin 2 μg/ml, 84 of the 86 OSSA strains, within an incubation period of 24 h",no DT
